According to ChEMBL document CHEMBL3044652, “Synthesis of novel 2-alkyl-4-substituted-amino-pyrazolo[3,4-d]pyrimidines as new leads for anti-bacterial and anti-cancer activity” (2013):

Columns and labels:
Format in all cases: functional
Bacillus subtilis [1] = test: Antibacterial activity against Bacillus subtilis NCIM 2545 at 10 ug/ml after 24 hr by agar diffusion method; conditions: NCIM 2545, 24 h, read-out: IZ
[2] = tested on: Staphylococcus epidermidis; test: Antibacterial activity against Staphylococcus epidermidis NCIM 2493 at 10 ug/ml after 24 hr by agar diffusion method; conditions: NCIM 2493, 24 h, read-out: IZ
G-361 [3] = test: Cytotoxicity against Homo sapiens (human) G361 cells assessed as cell growth at 10^-7 M by SRB assay relative to control; conditions: read-out: Activity
G-361 [4] = test: Cytotoxicity against Homo sapiens (human) G361 cells assessed as cell growth at 10^-6 M by SRB assay relative to control; conditions: read-out: Activity
Staphylococcus aureus [5] = test: Antibacterial activity against Staphylococcus aureus NCIM 5021 at 20 ug/ml after 24 hr by agar diffusion method; conditions: NCIM 5021, 24 h, read-out: IZ
G-361 [6] = test: Cytotoxicity against Homo sapiens (human) G361 cells by SRB assay
Escherichia coli [7] = test: Antibacterial activity against Escherichia coli NCIM 2803 at 10 ug/ml after 24 hr by agar diffusion method; conditions: NCIM 2803, 24 h, read-out: IZ
[8] = tested on: Staphylococcus epidermidis; test: Antibacterial activity against Staphylococcus epidermidis NCIM 2493 at 20 ug/ml after 24 hr by agar diffusion method; conditions: NCIM 2493, 24 h, read-out: IZ
Bacillus subtilis [9] = test: Antibacterial activity against Bacillus subtilis NCIM 2545 at 20 ug/ml after 24 hr by agar diffusion method; conditions: NCIM 2545, 24 h, read-out: IZ
Staphylococcus aureus [10] = test: Antibacterial activity against Staphylococcus aureus NCIM 5021 at 10 ug/ml after 24 hr by agar diffusion method; conditions: NCIM 5021, 24 h, read-out: IZ
Escherichia coli [11] = test: Antibacterial activity against Escherichia coli NCIM 2803 at 20 ug/ml after 24 hr by agar diffusion method; conditions: NCIM 2803, 24 h, read-out: IZ
G-361 [12] = test: Cytotoxicity against Homo sapiens (human) G361 cells assessed as cell growth at 10^-4 M by SRB assay relative to control; conditions: read-out: Activity
G-361 [13] = test: Cytotoxicity against Homo sapiens (human) G361 cells assessed as cell growth at 10^-5 M by SRB assay relative to control; conditions: read-out: Activity

Row | SMILES | zone of inhibition at 10 µg/mL (Bacillus subtilis [1]) | zone of inhibition at 10 µg/mL [2] | growth at 0.1 µM (G-361 [3]) | growth at 1 µM (G-361 [4]) | zone of inhibition at 20 µg/mL (Staphylococcus aureus [5]) | GI50 (G-361 [6]) | LC50 (G-361 [6]) | TGI (G-361 [6]) | zone of inhibition at 10 µg/mL (Escherichia coli [7]) | zone of inhibition at 20 µg/mL [8] | zone of inhibition at 20 µg/mL (Bacillus subtilis [9]) | zone of inhibition at 10 µg/mL (Staphylococcus aureus [10]) | zone of inhibition at 20 µg/mL (Escherichia coli [11]) | growth at 100 µM (G-361 [12]) | growth at 10 µM (G-361 [13])
1 | CCCCNc1nc(C(C)C)nc2c1cnn2-c1ccccc1 | 0 mm | 11 mm | 100% | 100% | 14.4 mm | > 100 µM | > 100 µM | > 100 µM | 0 mm | 14.1 mm | 12.8 mm | 11 mm | 13.3 mm | 45.4% | 100%
2 | CCCCNc1nc(C)nc2c1cnn2-c1ccccc1 | 0 mm | 11.1 mm | 100% | 100% | 14.6 mm | 2.4 µM | > 100 µM | > 100 µM | 11 mm | 14.5 mm | 13.8 mm | 11.3 mm | 14.4 mm | -30% | 100%
3 | CC(C)c1nc(N2CCOCC2)c2cnn(-c3ccccc3)c2n1 | 11.3 mm | 11 mm | 100% | 92.5% | 14.2 mm | 2.6 µM | > 100 µM | > 100 µM | 10.6 mm | 14.3 mm | 14.4 mm | 10.3 mm | 14.6 mm | 6.9% | 77.6%
4 | CC1(C)S[C@@H]2[C@H](NC(=O)[C@H](N)c3ccc(O)cc3)C(=O)N2[C@H]1C(=O)O [AMOXICILLIN] | 16.3 mm | 13 mm | – | – | 17.3 mm | – | – | – | 15.5 mm | 16.6 mm | 19 mm | 16.6 mm | 18.7 mm | – | –
5 | Cc1nc(Nc2ccccc2)c2cnn(-c3ccccc3)c2n1 | – | – | 100% | 100% | 13.4 mm | > 100 µM | > 100 µM | > 100 µM | – | 13.6 mm | 13.6 mm | – | 13.3 mm | 65.6% | 100%
6 | CCCNc1nc(C)nc2c1cnn2-c1ccccc1 | – | – | 100% | 100% | 13.6 mm | 36 µM | > 100 µM | > 100 µM | – | 13.6 mm | 13 mm | – | 12.7 mm | 25.3% | 100%
